Test results as given in paper PMC7822819, “Discovery of a new class of integrin antibodies for fibrosis” (Scientific Reports, 2021).
Read-outs that look alike come from different tables or passages of the source.

Experiments:
CHOK1 parental cells = assay: Cell adhesion assay (Epic) on fibronectin; type: cell-based, hamster; conditions: in words
human αvβ1 = human αvβ1 (Homo sapiens, UniProt P05556+P06756); assay: AlphaLISA integrin-ligand binding assay; type: biochemical; parameters: hαV 1 992; hβ1 1 728; made in house; host or cells: Expi293
human αvβ1, sequence (P06756 31-992): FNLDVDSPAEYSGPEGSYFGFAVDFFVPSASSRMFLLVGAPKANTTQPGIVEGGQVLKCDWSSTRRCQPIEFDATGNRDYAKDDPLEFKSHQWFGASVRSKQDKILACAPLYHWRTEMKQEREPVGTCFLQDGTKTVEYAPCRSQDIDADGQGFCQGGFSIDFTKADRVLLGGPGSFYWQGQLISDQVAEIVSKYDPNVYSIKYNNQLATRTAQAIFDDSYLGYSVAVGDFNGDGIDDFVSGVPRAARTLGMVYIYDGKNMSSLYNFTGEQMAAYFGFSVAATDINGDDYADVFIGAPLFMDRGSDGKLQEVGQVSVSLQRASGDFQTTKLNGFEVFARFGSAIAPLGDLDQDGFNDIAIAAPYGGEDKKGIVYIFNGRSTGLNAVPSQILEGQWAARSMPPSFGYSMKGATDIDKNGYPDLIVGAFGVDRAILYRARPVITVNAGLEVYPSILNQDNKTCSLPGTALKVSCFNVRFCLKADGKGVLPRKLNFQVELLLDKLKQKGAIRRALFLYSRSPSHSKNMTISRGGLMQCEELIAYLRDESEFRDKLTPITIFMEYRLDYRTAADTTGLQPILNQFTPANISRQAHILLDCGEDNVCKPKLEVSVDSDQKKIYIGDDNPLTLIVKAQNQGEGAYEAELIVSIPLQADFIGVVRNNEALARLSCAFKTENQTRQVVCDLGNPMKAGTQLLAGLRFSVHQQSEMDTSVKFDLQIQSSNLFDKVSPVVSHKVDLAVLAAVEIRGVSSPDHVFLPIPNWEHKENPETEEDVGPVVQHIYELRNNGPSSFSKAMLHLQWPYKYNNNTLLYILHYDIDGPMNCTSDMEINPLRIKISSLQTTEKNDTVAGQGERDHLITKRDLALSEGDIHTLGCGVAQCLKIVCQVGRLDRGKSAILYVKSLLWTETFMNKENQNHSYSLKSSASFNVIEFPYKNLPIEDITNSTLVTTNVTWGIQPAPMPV
human αvβ1, sequence (P05556 21-728): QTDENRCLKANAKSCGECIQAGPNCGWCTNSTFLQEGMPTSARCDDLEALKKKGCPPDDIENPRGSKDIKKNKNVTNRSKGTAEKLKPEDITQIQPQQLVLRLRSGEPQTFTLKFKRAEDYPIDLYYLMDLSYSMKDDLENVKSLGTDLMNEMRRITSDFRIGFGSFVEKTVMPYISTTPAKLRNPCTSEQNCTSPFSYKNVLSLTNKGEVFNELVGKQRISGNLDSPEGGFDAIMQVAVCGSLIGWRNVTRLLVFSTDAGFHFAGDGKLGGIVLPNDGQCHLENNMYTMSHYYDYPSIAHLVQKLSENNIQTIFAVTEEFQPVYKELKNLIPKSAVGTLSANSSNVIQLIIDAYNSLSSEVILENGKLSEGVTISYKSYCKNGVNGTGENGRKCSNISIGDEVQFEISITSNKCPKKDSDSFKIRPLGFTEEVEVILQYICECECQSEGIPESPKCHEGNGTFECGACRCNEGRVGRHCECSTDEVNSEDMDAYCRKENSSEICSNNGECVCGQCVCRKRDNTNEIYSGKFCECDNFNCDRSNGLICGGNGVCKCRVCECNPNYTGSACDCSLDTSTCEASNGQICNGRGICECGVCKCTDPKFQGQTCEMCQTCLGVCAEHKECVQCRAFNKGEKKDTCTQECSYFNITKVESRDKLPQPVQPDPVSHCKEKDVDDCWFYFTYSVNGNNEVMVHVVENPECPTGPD
Method: In the AlphaLISA integrin assays, we used a HEPES based buffer (25 mM HEPES pH 7.4, 137 mM NaCl, 1 mM MgCl2, 1 mM MnCl2, 2 mM CaCl2, 2.7 mM KCl, and 0.05% Tween-20). Optimal assay conditions were determined with a titration of the reagents for signal noise ratio (S/N), linear range, etc. For the respective integrins, we used the final concentrations described in Supplemental Table S3. Briefly, the testing antibody (8 μL) was added as a 4x (of Final testing concentration) solution in the HEPES buffer described previously into a 384w AlphaPlate (Perkin Elmer #6005350). Then the integrin and ligand were added sequentially as 8x (4 μL each). Plates were sealed and incubated at room temperature for 2 h. Then 4 × acceptor bead solution (8 μL) was added, and the plates were resealed and incubated at RT for 1 h. Finally, 4 × (8 μL) donor beads solution was added in a darkened room and incubated for 45 min at room temperature. Plates were read on the Envision (Perkin Elmer) in AlphaScreen mode within 3 h of donor bead addition.
Supplemental Table S3. integrin AlphaLIS A assay reagents and conditions Human A l phal i sa Inte gri n A ssays: Fi nal Condi ti ons […]
( batch de pe nde nt) anti body A l phaLi sa A cce ptor havb1 1. 4 nM 1. 0 nMα - Fi brone cti n human Fi brone cti n n/a A cce ptor be ads/ Pe rki n 10. 0 ug/ m 10. 0 ug/ m […]
havb3 3. 0 nM 10. […]

With `COc1ccc(C(CC(=O)O)N2CCN(CCCc3ccc4c(n3)NCCC4)C2=O)cn1` (stereo not drawn) [MK-0429] the “Effect on cell adhesion, CHOK1 parental cells” value (CHOK1 parental cells) was “little inhibitory activity”, the IC50 (human αvβ1; Fig. 3D, assay optimisation, read-out: IC50 human αvβ1 AlphaLISA) was 0.46 nM and the IC50 (human αvβ1; Fig. 4B, read-out: IC50 Human integrin AlphaLISA assays: hαvβ1) was 1 nM.
